Measured values from patent US8470842B2, “Hydrochloride salts of 8-[{1-(3,5-Bis-trifluoromethyl)phenyl)-ethoxy}-methyl]-8-phenyl-1,7-diaza-spiro[4.5]decan-2-one and preparation process therefor” (OPKO Health, Inc., priority 2006, dated 2013).
“Also recorded” adds a separate entry of the source. Counter-ions that a name gives are not always drawn.

Key:
Type in all cases: physicochemical
[1] = Solubility tests (equilibrated slurry, HPLC quantification); conditions: for aqueous solubility: water, pH of 4 or less (more acidic)
Experimental: Solubility tests were conducted by placing an excess of the compound in an aliquot of the solvent of interest and allowing the slurry to equilibrate under the selected temperature conditions (typically ambient). When the solvent was water, pH was adjusted to the desired value with hydrochloric acid and sodium hydroxide. When the slurry mixture had equilibrated, the excess solids were centrifuged (water) or filtered (all other solvents) from the supernatant and the amount of compound which had been dissolved was quantified utilizing HPLC analysis of diluted aliquots of the supernatant liquid. Pharmaceutical grade solvents were employed.

[2] = Chemical stability tests on storage under humidity and temperature conditions
Experimental: Chemical stability tests were carried out on aliquots of the salt form of interest by placing a accurately weighed sample of the salt form of the compound of Formula I into a polyethylene bag. The bagged samples were enclosed in fiberboard tubes fitted with metal caps which were stored under the indicated conditions of humidity and temperature for the indicated time. Analysis was carried out by dissolving the contents of a vial and quantifying the amount of solute utilizing HPLC analysis. Where noted the aliquots were stored in capped amber vials under the conditions noted instead of polyethylene bags.
(§1) The stability of the crystalline monohydrate hydrochloride salt form of the compound of Formula I was also examined using the procedure described above for samples contained in polyethylene bags by exposing samples to the following conditions: (a) 60% relative humidity (RH) at 4° C. for twelve months, at 25° C. for eighteen months, and at 50° C. for one month; (b) 40° C. and 75% relative humidity (RH) for twelve weeks, and (c) 70° C. at ambient humidity for one hour. Samples of the crystalline monohydrate hydrochloride form I salt were also tested for one cycle of ICH UV/Vis light stress conditions.
(§2) The stability of the crystalline tosylate form I salt form of the compound of Formula I was examined by placing weighed amounts of the salt into clear glass vials and storing them under the indicated conditions. Periodically a vial was removed and the contents examined for decomposition of the compound. Accordingly, samples of the tosylate form I salt were exposed to the following conditions: (a) 40° C. and 75% relative humidity (RH) for four weeks; (b) 50° C. and ambient relative humidity for four weeks; and (c) 70° C. for one hour. Samples of the tosylate form I salt were separately tested for one cycle of ICH UV/Vis light stress conditions.

[3] = ICH UV/Vis light stress conditions; conditions: one cycle of ICH UV/Vis light stress conditions
Experimental: as §1, §2

[4] = solvent Ethanol, ambient temperature
[5] = solvent Glycerin, ambient temperature
[6] = solvent PEG 400, ambient temperature
[7] = solvent Propylene Glycol, ambient temperature

Compound	Solubility (mg/ml, ambient conditions) [1, 4]	Solubility (mg/ml, ambient conditions) [1, 5]	Solubility (mg/ml, ambient conditions) [1, 6]	Solubility (mg/ml, ambient conditions) [1, 7]	aqueous solubility [1]	temperature up to which the salt is stable ([2]; 70° C. at ambient humidity for one hour, polyethylene bags)	stability at ambient/room temperature over relative humidity range ([2]; ambient temperature, about 5% to about 95% relative humidity)	stability under light stress [3]	stability under all tested conditions ([2]; clear glass vials, 40° C./75% RH four weeks, 50° C./ambient RH four weeks, 70° C. one hour, one cycle ICH UV/Vis light stress)	form change on storage ([2]; storage under ambient conditions of temperature and humidity after dehydration)
C[C@@H](OC[C@@]1(c2ccccc2)CC[C@]2(CCC(=O)N2)CN1)c1cc(C(F)(F)F)cc(C(F)(F)F)c1 [monohydrate hydrochloride form I salt, (5S,8S)-8-[{(1R)-1-(3,5-Bis-(trifluoromethyl)phenyl)-ethoxy}-methyl]-8-phenyl-1,7-diazaspiro[4.5]decan-2-one]	185 mg/mL	16 mg/mL	20 mg/mL	160 mg/mL	at least 1.0 mg/ml	about 70 °C	does not decompose or dehydrate; also recorded: stable at room temperature	stable under light stress conditions	–	–
C[C@@H](OC[C@@]1(c2ccccc2)CC[C@]2(CCC(=O)N2)CN1)c1cc(C(F)(F)F)cc(C(F)(F)F)c1 [tosylate form I salt, (5S,8S)-8-[{(1R)-1-(3,5-Bis-(trifluoromethyl)phenyl)-ethoxy}-methyl]-8-phenyl-1,7-diazaspiro[4.5]decan-2-one]	75 mg/mL	2.5 mg/mL	1.8 mg/mL	20 mg/mL	at least 0.38 mg/ml	–	–	–	stable under all tested conditions	–
C[C@@H](OC[C@@]1(c2ccccc2)CC[C@]2(CCC(=O)N2)CN1)c1cc(C(F)(F)F)cc(C(F)(F)F)c1 [anhydrous form I salt, (5S,8S)-8-[{(1R)-1-(3,5-Bis-(trifluoromethyl)phenyl)-ethoxy}-methyl]-8-phenyl-1,7-diazaspiro[4.5]decan-2-one]	–	–	–	–	–	–	–	–	–	returns the crystals to the monohydrate form
